Measurements published in patent US7625583B2, “Dietary lipids for improving skin and coat of pets” (Nestec S.A., priority 2000, dated 2009).
Values after ≈ are worked out from the molar mass of the structure shown.

Tests used:
Staphylococcus aureus = test: Colorimetric AlamarBlue microtiterplate MIC determination of fatty acids; assay type: cell-based; conditions: four S. aureus strains, 24 h at 30° C.
Excerpt: (§1) A colorimetric method for quantitative measurement of the susceptibility of Staphylococcus aureus, Staphylococcus intermedius and Malassezia pachydermatis strains to fatty acids was developed. This method is based on the assays described by Hogan, J. S., et al, 1987, J. Dairy, Sci., 70, 927-934 and Tiballi, R. N., et al., 1995, J. Clin. Microbiol., 33 (4), 915-917.
(§2) The microorganisms used in this study were Staphylococcus aureus FSM 51, 52, 84 (food isolates), ATCC 6538, Staphylococcus intermedius BCCM™/LMG 9079, 13351 and Malassezia pachidermatis ATCC 14522. Staphylococcus strains were grown in Lab-Lemco broth (LL broth, Oxoid CM 15) for 18-20 h at 30° C. and Malassezia was cultivated for 5 days at 30° C. in liquid Dixon medium (30 g Malt extract, 20 g Oxbile, 15 g Agar, 5 g Mycological peptone, 2.5 g Glycerol mono-oleate, 10 ml Tween™ 40, pH=5.4±0.2). After washing in saline (Oxoid, BR53), cell pellets were resuspended in LL broth supplemented with 0.15% agar (w/v).
(§3) Minimal inhibitory concentrations (MICs) of palmitoleic, lauric and oleic acids (NU-CHECK-PREP, Inc, DK, U-40-A, N-12-A, U-46-A respectively) were investigated in a microtiterplate assay using an oxidation-reduction dye, AlamarBlue™ (Interchim, Fr), as an indicator of growth. Each plate was set up with each of the test microorganisms as follows: one column, 110 μl of sterile LL broth supplemented with 0.15% agar (negative control), one column, 100 μl of sterile LL broth supplemented with 0.15% agar plus 10 μl of test microorganism (positive control), other columns, 100 μl of serial two fold dilutions of the test fatty acids (diluted in LL broth supplemented with 0.15% agar) plus 10 μl of microorganism (final concentration of 10^3-10^4 cell/ml). Plates were incubated at 30° C. in ambient air and examined at 24 h and 4-5 days for Staphylococcus strains and Malassezia respectively. After incubation period, 25 μl of AlamarBlue™ solution (¼ diluted with 10 mM Phosphate Buffered Saline 0.05% Tween 20, Sigma P3563) were added to each well. After a second incubation of 2 h (Staphylococcus) and 1 day (Malassezia) at 30° C., endpoints were determined visually by observing a color change from blue (no growth) to pink (growth). MIC was defined as the lowest fatty acid concentration showing no growth (any color change).

[1] = test system: Staphylococcus intermedius; test: as above; assay type: cell-based; conditions: two S. intermedius strains, 24 h at 30° C.
Excerpt: as §1, §2, §3

Malassezia pachydermatis = test: as above; assay type: cell-based; conditions: one M. pachydermatis strain, 4-5 days at 30° C.
Excerpt: as §1, §2, §3

[2] = human trial, 600 mg/day for 24 weeks; cited from earlier work
[3] = test system: Pneumococci, Streptococcus, Corynebacteria, Micrococci, Candida, Staphylococcus aureus; conditions: several skin pathogens; cited from earlier work

MIC range (Staphylococcus aureus) [µg/mL] | MIC range [1] [µg/mL] | MIC range (Malassezia pachydermatis) [µg/mL] | SMILES | Improvement of hand dermatitis (in words) [2] | Inhibition of skin pathogens in vitro (in words) [3]
>25000 | >25000 | >25000 | CCCCCCCC/C=C\CCCCCCCC(=O)O [Oleic, oleic acid] |  | 
 |  |  | CCCCC/C=C\C/C=C\C/C=C\CCCCC(=O)O [γ-linolenic acid] | did not improve hand dermatitis significantly | 
 |  |  | CCCCC/C=C\C/C=C\CCCCCCCC(=O)O [linoleic acid] |  | inhibitory
20 (≈ 78.6 µM) | 20 to 100 |  | CCCCCC/C=C\CCCCCCCC(=O)O [Palmitoleic, palmitoleic acid] |  | inhibitory
<200 to 400 | <200 to 800 | <200 | CCCCCCCCCCCC(=O)O [Lauric, lauric acid] |  | inhibitory
